Results as given in ChEMBL document CHEMBL1201862, “PubChem BioAssay data set” (2004).
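Briefly, cells in 96-well plates were exposed to five compound concentrations for 48 h, and endpoints were estimated by linear interpolation. GI50 marks 50% less growth.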 Calls of active or inactive are those of the source. Rule as the data show it: active = GI50 up to about 1.1 µM and inactive = higher.

Legend:
Assay in all cases: NCI tumour cell line growth inhibition, 48 h
ACHN = test system: ACHN
CAKI-1 = test system: CAKI-1
COLO 205 = test system: COLO 205
HT-29 = test system: HT-29
IGROV-1 = test system: IGROV-1
K562 = test system: K562
KM12 = test system: KM12
MOLT-4 = test system: MOLT-4
NCI-H23 = test system: NCI-H23
RPMI-8226 = test system: RPMI-8226
SK-MEL-2 = test system: SK-MEL-2
SNB-19 = test system: SNB-19
UACC-257 = test system: UACC-257
UACC-62 = test system: UACC-62
NCI-H226 = test system: NCI-H226
HL-60 = test system: HL-60

Measured: GI50

CCNC(=O)O/N=C1/C=C2CC[C@@H]3C(CC[C@@]4(C)C3CC[C@@H]4OC(=O)NCC)[C@@]2(C)CC1 (stereo partly drawn)
inactive: ACHN 2.75 µM | CAKI-1 4.26 µM | COLO 205 2.44 µM | HT-29 3.27 µM | IGROV-1 7.5 µM | K562 2.87 µM | KM12 2.54 µM | MOLT-4 2.36 µM | NCI-H23 3.07 µM | RPMI-8226 2.52 µM | SK-MEL-2 2.21 µM | SNB-19 2.48 µM | UACC-257 2.24 µM | UACC-62 2.67 µM

N=C(N)N/N=C(/CCN1CCCC1)CC(c1ccccc1)c1c(O)c2ccccc2oc1=O (stereo not drawn)
inactive: ACHN > 100 µM | CAKI-1 > 100 µM | COLO 205 > 100 µM | HT-29 > 100 µM | IGROV-1 > 100 µM | K562 > 100 µM | NCI-H226 > 100 µM | NCI-H23 > 100 µM | RPMI-8226 > 100 µM | SK-MEL-2 > 100 µM | SNB-19 > 100 µM | UACC-257 > 100 µM | UACC-62 > 100 µM

C=CCNC(=S)N1c2ccccc2NC(=O)CC1C (stereo not drawn)
inactive: ACHN > 100 µM | COLO 205 > 100 µM | HL-60 > 100 µM | HT-29 > 100 µM | IGROV-1 > 100 µM | K562 > 100 µM | KM12 > 100 µM | MOLT-4 > 100 µM | NCI-H226 > 100 µM | NCI-H23 > 100 µM | RPMI-8226 > 100 µM | SK-MEL-2 > 100 µM | SNB-19 > 100 µM | UACC-62 > 100 µM

CCOc1c(Cc2ccccc2)c(=O)n2c3ccccc3n3c(=O)n(C)c(=O)c1c23
inactive: ACHN > 100 µM | CAKI-1 > 100 µM | COLO 205 > 100 µM | HT-29 > 100 µM | IGROV-1 > 100 µM | KM12 > 100 µM | MOLT-4 > 100 µM | NCI-H23 > 100 µM | RPMI-8226 > 100 µM | SK-MEL-2 > 100 µM | SNB-19 > 100 µM | UACC-257 > 100 µM | UACC-62 > 100 µM

O=c1oc2c3ccc4ccccc4c3n(CCN3CCCCC3)c2c2ccccc12
inactive: ACHN 31.6 µM | CAKI-1 48.2 µM | COLO 205 14.8 µM | HL-60 89.5 µM | HT-29 10.1 µM | IGROV-1 > 55.2 µM | K562 15.1 µM | KM12 79.1 µM | MOLT-4 2.46 µM | NCI-H23 21.4 µM | RPMI-8226 > 100 µM | SK-MEL-2 26.5 µM | SNB-19 28.8 µM | UACC-257 > 62.5 µM | UACC-62 36.3 µM

OC[C@@H]1CC#C/C=C\C#CC[C@@H]1CO
inactive: CAKI-1 > 100 µM | COLO 205 > 100 µM | HL-60 > 100 µM | HT-29 > 100 µM | IGROV-1 > 100 µM | K562 > 100 µM | KM12 > 100 µM | MOLT-4 > 100 µM | NCI-H23 > 100 µM | RPMI-8226 > 100 µM | SK-MEL-2 > 100 µM | SNB-19 > 100 µM

CCOC(=O)/C(=C/c1ccc(OC)c(OC)c1)C(=O)c1ccccc1
inactive: ACHN 27.9 µM | CAKI-1 14.7 µM | COLO 205 16.9 µM | HT-29 13.6 µM | IGROV-1 20.2 µM | K562 10.3 µM | KM12 14.9 µM | MOLT-4 17.5 µM | NCI-H23 17.7 µM | RPMI-8226 10.5 µM | SK-MEL-2 38.5 µM | SNB-19 15.8 µM | UACC-257 15.1 µM | UACC-62 13.2 µM

Cc1ccc(Oc2ccccc2N)cc1
inactive: COLO 205 6.07 µM | HL-60 10.4 µM | HT-29 37.2 µM | IGROV-1 50.4 µM | K562 37.8 µM | KM12 33.3 µM | MOLT-4 15.4 µM | NCI-H23 39.9 µM | RPMI-8226 33.7 µM | SK-MEL-2 51.5 µM | SNB-19 78.5 µM | UACC-257 52.5 µM | UACC-62 60.1 µM

CN(C)CC1CCCC/C1=N/OC(=O)c1ccc(Cl)cc1 (stereo not drawn)
inactive: ACHN > 100 µM | CAKI-1 > 100 µM | COLO 205 > 100 µM | HL-60 > 100 µM | HT-29 > 100 µM | IGROV-1 > 100 µM | K562 > 100 µM | KM12 > 100 µM | MOLT-4 > 100 µM | NCI-H226 > 100 µM | NCI-H23 > 100 µM | RPMI-8226 > 100 µM | SK-MEL-2 > 100 µM | UACC-257 > 100 µM | UACC-62 > 100 µM

CC1C(=O)N(C)C2(CO)C(=O)O[C@H](C)C12O (stereo partly drawn)
inactive: CAKI-1 > 100 µM | COLO 205 > 100 µM | HT-29 > 100 µM | IGROV-1 > 100 µM | K562 > 100 µM | KM12 > 100 µM | MOLT-4 > 100 µM | NCI-H23 > 100 µM | RPMI-8226 > 100 µM | SK-MEL-2 > 100 µM | SNB-19 > 100 µM | UACC-62 > 100 µM

Cc1[nH]c2ccccc2c1CC/C(=N\Nc1ccccc1)c1ccccc1
inactive: ACHN > 100 µM | CAKI-1 > 100 µM | HL-60 > 100 µM | HT-29 > 100 µM | IGROV-1 > 100 µM | K562 > 100 µM | KM12 > 100 µM | MOLT-4 > 100 µM | NCI-H226 > 100 µM | NCI-H23 > 100 µM | RPMI-8226 > 100 µM | SK-MEL-2 > 100 µM | UACC-257 > 100 µM | UACC-62 > 100 µM

Cc1ccc(S(=O)OC2c3ccccc3Cc3ccccc32)cc1 (stereo not drawn)
inactive: ACHN 22.4 µM | CAKI-1 17.3 µM | COLO 205 17.5 µM | HL-60 17.6 µM | HT-29 32.1 µM | IGROV-1 21.6 µM | K562 17.7 µM | KM12 21.2 µM | MOLT-4 19.2 µM | NCI-H226 18.5 µM | NCI-H23 18.6 µM | RPMI-8226 36.1 µM | SNB-19 23.8 µM | UACC-257 19.3 µM | UACC-62 17.7 µM

C/N=C(\SC)N(C)c1nc(=[N+](C)C)ss1.[O-][Cl+3]([O-])([O-])[O-]
inactive: ACHN > 100 µM | CAKI-1 52 µM | HL-60 7.38 µM | HT-29 4.22 µM | IGROV-1 > 100 µM | K562 10.7 µM | KM12 > 100 µM | MOLT-4 9.53 µM | NCI-H226 > 100 µM | NCI-H23 > 100 µM | SK-MEL-2 > 100 µM | SNB-19 > 100 µM | UACC-257 > 100 µM | UACC-62 4.9 µM

COC(=O)NN1C(C)=C(C(=O)OC)C2(C#N)C(C(=O)OC)=C(C)N(NC(=O)OC)C12N (stereo not drawn)
inactive: ACHN > 100 µM | CAKI-1 > 100 µM | COLO 205 > 100 µM | HL-60 > 100 µM | HT-29 > 100 µM | IGROV-1 > 100 µM | K562 > 100 µM | MOLT-4 > 100 µM | NCI-H226 > 100 µM | NCI-H23 > 100 µM | RPMI-8226 > 100 µM | SK-MEL-2 > 100 µM | SNB-19 > 100 µM | UACC-257 > 100 µM | UACC-62 > 100 µM
